Laboratory results: patent publication US12264185B2, “Stabilized BCL9 peptides for treatment of aberrant Wnt signaling” (WntRx Pharmaceuticals Inc., priority 2015, dated 2025)

Key:
β-catenin = biological target: T1, β-catenin (Homo sapiens, UniProt P35222); assay: HTRF binding assay; settings: WX-024 coupled to biotin
T1 sequence (P35222 1-781): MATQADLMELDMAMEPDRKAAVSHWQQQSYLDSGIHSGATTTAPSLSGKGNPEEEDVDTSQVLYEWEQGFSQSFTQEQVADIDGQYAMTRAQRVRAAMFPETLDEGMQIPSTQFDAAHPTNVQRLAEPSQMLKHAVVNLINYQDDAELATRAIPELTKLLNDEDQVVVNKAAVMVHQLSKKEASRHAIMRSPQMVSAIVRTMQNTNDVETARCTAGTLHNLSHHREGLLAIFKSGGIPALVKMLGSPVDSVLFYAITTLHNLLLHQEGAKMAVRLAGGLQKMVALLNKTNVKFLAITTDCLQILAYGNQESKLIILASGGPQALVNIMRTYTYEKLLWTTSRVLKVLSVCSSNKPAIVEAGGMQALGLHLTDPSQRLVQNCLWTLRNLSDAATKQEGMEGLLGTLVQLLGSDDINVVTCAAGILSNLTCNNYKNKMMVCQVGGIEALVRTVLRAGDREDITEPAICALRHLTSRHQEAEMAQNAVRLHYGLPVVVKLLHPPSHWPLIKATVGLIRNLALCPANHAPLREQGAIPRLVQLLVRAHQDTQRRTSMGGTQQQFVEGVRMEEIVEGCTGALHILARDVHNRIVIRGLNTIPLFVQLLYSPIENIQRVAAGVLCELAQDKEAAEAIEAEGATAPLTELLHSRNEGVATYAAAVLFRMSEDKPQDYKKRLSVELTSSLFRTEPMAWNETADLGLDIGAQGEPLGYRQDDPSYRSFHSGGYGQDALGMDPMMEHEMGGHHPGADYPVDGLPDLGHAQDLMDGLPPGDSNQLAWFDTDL
Source text: HTRF assays provide a means of assaying protein-protein interactions in a high-throughput format, as discussed in Degorce et al., Curr Chemical Genom. 3, 22-32 (2009). In an HTRF assay to measure a protein-protein interaction, binding of 2 proteins brings an HTRF donor and acceptor fluorophore into close proximity and generates the fluorescence energy transfer (FRET) signal. Each protein of the interaction is associated with the donor or the acceptor by an antibody reaction.
FIG. 6A provides a schematic to depict the basis of the HTRF assay. In the HTRF assay for β-catenin (Cisbio), β-catenin is bound by an XL665-coupled antibody (ab) against β-catenin. See Degorce (2009). β-catenin bound to an XL665-coupled antibody can interact with its binding partners, such as BCL9 or BCL9 peptides.
SA is a high-affinity binding partner to biotin and will tightly bind the SA-europium cryptate to the biotinylated stabilized polypeptides. Europium cryptate is an energy donor for an HTRF reaction. When not closely bound, there is no energy transfer between europium cryptate and XL665.
Histidine-tagged β-catenin, BCL9 peptide labeled with biotin, europium (Eu) labeled monoclonal antibody for histidine tag, and SA-XL665 were used in the HTRF assay. […] The reaction was incubated at room temperature for 1 hour and then the plate was read.

HCT116 cells = assay type: cell-based
Description: The additional polypeptides were tested in a CellTiterGlo luminescent cell viability assay (Promega). ICG001 was used as a positive control in this assay.

NCI-H1299-Luc cells = assay: NCI-H1299-Luc orthotopic model in balb/c nude mice; assay type: in vivo; settings: 15 mg/kg i.v. daily, 10 days
Source text: Orthotopic mouse models are useful to visualize the effect of an anti-tumor compound on a tumor implanted in a mouse and to assess the effect of the compound on tumor metastasis. An orthotropic model utilizing the NCI-H1299-Luc cell line (non-small-cell lung carcinoma cell line expressing luciferase) was selected for this experiment. Upon uptake of luciferin substrate, these cells are capable of producing bioluminescence. Proliferation of the NCI-H1299 cell line is dependent on Pygopus (Pygo) 2/β-catenin transcription activity, in which TCF-1 transcription factors (BCL9, β-cat and Pygo) form a transcription complex to initiate transcription.
The mice were about 5 weeks of age. NCI-H1299-Luc cells (5×10^6) in 50 μL in PBS were injected into each mouse lung with a syringe.
The bioluminescence intensity (total Flux [p/s]) of each mouse was measured periodically throughout the study according to manufacturer protocol (Xenogen ivis imaging system, PerkinElmer).

SMILES: CC[C@H](C)[C@@H]1NC(=O)[C@@](C)(NC(=O)[C@H](CCCNC(=N)N)NC(=O)[C@H](CC(C)C)NC(=O)[C@@H](NC(=O)[C@H](CCC(N)=O)NC(=O)[C@H](CC(C)C)NC(C)=O)[C@@H](C)O)CCCC=CCCC[C@@](C)(C(=O)N[C@@H](CC(C)C)C(=O)N[C@@H](Cc2ccc3ccccc3c2)C(N)=O)NC(=O)[C@H](CCCNC(=N)N)NC(=O)[C@H](CCC(N)=O)NC1=O [WX-024, LQTLRXaa1IQRXaa2L]
- Kd (β-catenin): 4.21 nM
- IC50 (HCT116 cells): 1920 nM
- inhibition of cell growth (HCT116 cells; HCT116 cells, CellTiterGlo): particularly effective
- tumor formation and growth (bioluminescence total flux) (NCI-H1299-Luc cells): almost completely blocked tumor formation and growth in vivo
